Source: patent US12145944B2, “Imidazopyrimidines as EED inhibitors and the use thereof” (THE REGENTS OF THE UNIVERSITY OF MICHIGAN, priority 2019, dated 2024)
Read-outs that look alike come from different tables or passages of the source.

How the values were obtained:
[1] = test system: KARPAS422 human B cell lymphoma cell; assay: Cell proliferation, KARPAS422, 7 day treatment (WST-8); assay type: cell-based; conditions: Homo sapiens, KARPAS-422, 168 h
Protocol: (§1) “N/A” stands for “not assessed”.
Analysis of Cell Proliferation:
(§2) To assess the effect of PRC2 inhibition on cell growth, cells were seeded in 96-well cell culture plates at a density of 2 000-3 000 cells/well in 200 µL of culture medium, and treated with serially diluted compounds for 7 days at 37° C. in an atmosphere of 5% CO2. Cell growth was evaluated by a […] WST-8 assay (Dojindo Molecular Technologies) using a Tecan Infinite M1000 multimode microplate reader (Tecan, Morrisville, NC). The WST-8 reagent was added to the plate, incubated for 1-4 h, and read at 450 nm. The readings were normalized to the DMSO-treated cells, and the IC50 was calculated by nonlinear regression analysis using GraphPad Prism 6 software

[2] = test system: Pfeiffer cell line; assay: Anti-proliferative activity, Pfeiffer cell line, 7 day treatment; assay type: cell-based; conditions: Homo sapiens, 168 h
Protocol: as §1, §2

[3] = read-out: Karpas Cell line (nM)
[4] = anti-proliferative IC50, Karpas 422 cell line, 7 day treatment, read-out: Karpas Cell line
[5] = anti-proliferative IC50, Pfeiffer cell line, 7 day treatment, read-out: Pfeiffer Cell line
[6] = anti-proliferative IC50 class, Karpas 422 cell line, 7 day treatment, read-out: Karpas Cell line
[7] = anti-proliferative IC50 class, Pfeiffer cell line, 7 day treatment, read-out: Pfeiffer Cell line

Row | SMILES | IC50 [1, 4] [nM] | further results
1 | Cc1ncccc1-c1cnc(NCc2c(F)ccc3c2CCO3)n2cnc(S(C)(=O)=O)c12 [compound 101, N-((5-fluoro-2,3-dihydrobenzofuran-4-yl)methyl)-8-(2-methylpyridin-3-yl)-1-(methylsulfonyl)imidazo[1,5-c]pyrimidin-5-amine] |  | IC50 [1, 3]: 5.59 nM; IC50 ([2]; Pfeiffer, read-out: Pfeiffer Cell line (nM)): 1.76 nM
2 | O=C1c2ncn3c(NCc4c(F)ccc5c4CCO5)ncc(c23)-c2cnc(C(F)(F)F)cc2CN1CC1COCCO1 (stereo not drawn) [compound 37, 4-((1,4-dioxan-2-yl)methyl)-12-(((5-fluoro-2,3-dihydrobenzofuran-4-yl)methyl)amino)-7-(trifluoromethyl)-4,5-dihydro-3H-2,4,8,11,12a-pentaazabenzo[4,5]cycloocta[1,2,3-cd]inden-3-one] | 1.79 | IC50 [2, 5]: 0.25 nM
3 | O=C1c2ncn3c(NCc4c(F)ccc5c4CCO5)ncc(c23)-c2ccc(C(F)(F)F)cc2CN1CC(F)(F)F [compound 83, 12-(((5-fluoro-2,3-dihydrobenzofuran-4-yl)methyl)amino)-4-(2,2,2-trifluoroethyl)-7-(trifluoromethyl)-4,5-dihydro-3H-2,4,11,12a-tetraazabenzo[4,5]cycloocta[1,2,3-cd]inden-3-one] | 6.32 | IC50 [2, 5]: 0.304 nM
4 | Cc1onc2c1Cc1cc(C(F)(F)F)ncc1-c1cnc(NCc3c(F)ccc4c3CCO4)n3cnc-2c13 [E 35, N-((5-fluoro-2,3-dihydrobenzofuran-4-yl)methyl)-5-methyl-8-(trifluoromethyl)-6H-4-oxa-2,3,9,12,13a-pentaazabenzo[4,5]cyclopenta[7,8]cycloocta [1,2,3-cd]inden-13-amine] |  | IC50 [1, 6]: 10 to 100 nM; IC50 [2, 7]: 10 to 100 nM
5 | O=C1c2ncn3c(NCc4c(F)ccc5c4CCO5)ncc(c23)-c2cnc(C(F)(F)F)cc2CN1C1CC(F)(F)C1 [compound 85, 4-(3,3-difluorocyclobutyl)-12-(((5-fluoro-2,3-dihydrobenzofuran-4-yl)methyl)amino)-7-(trifluoromethyl)-4,5-dihydro-3H-2,4,8,11,12a-pentaazabenzo[4,5]cycloocta[1,2,3-cd]inden-3-one] | 2.71 | IC50 [2, 5]: 0.13 nM
6 | CCc1ccc2c(n1)CN(CC(F)(F)F)C(=O)c1ncn3c(NCc4c(F)ccc5c4CCO5)ncc-2c13 [E 12, 7-ethyl-12-(((5-fluoro-2,3-dihydrobenzofuran-4-yl)methyl)amino)-4-(2,2,2-trifluoroethyl)-4,5-dihydro-3H-2,4,6,11,12a-pentaazabenzo[4,5]cycloocta[1,2,3-cd]inden-3-one] |  | IC50 [1, 6]: < 10 nM; IC50 [2, 7]: < 10 nM
7 | O=C1NCc2c(F)cccc2-c2cnc(NCc3c(F)ccc4c3CCO4)n3cnc1c23 [compound 20, 6-fluoro-12-(((5-fluoro-2,3-dihydrobenzofuran-4-yl)methyl)amino)-4,5-dihydro-3H-2,4,11,12a-tetraazabenzo[4,5]cycloocta[1,2,3-cd]inden-3-one] | 13.9 | IC50 [2, 5]: 0.9 nM
8 | O=C1c2ncn3c(NCc4c(F)ccc5c4CCO5)ncc(c23)-c2cnc(C(F)(F)F)cc2CN1CC1CCOCC1 [compound 45, 12-(((5-fluoro-2,3-dihydrobenzofuran-4-yl)methyl)amino)-4-((tetrahydro-2H-pyran-4-yl)methyl)-7-(trifluoromethyl)-4,5-dihydro-3H-2,4,8,11,12a-pentaazabenzo[4,5]cycloocta[1,2,3-cd]inden-3-one] | 6.15 | IC50 [2, 5]: 0.61 nM
9 | O=C1c2ncn3c(NCc4c(F)ccc5c4CCO5)ncc(c23)-c2nc(C(F)(F)F)ccc2CN1CC1COCCO1 (stereo not drawn) [compound 40, 4-((1,4-dioxan-2-yl)methyl)-12-(((5-fluoro-2,3-dihydrobenzofuran-4-yl)methyl)amino)-8-(trifluoromethyl)-4,5-dihydro-3H-2,4,9,11,12a-pentaazabenzo[4,5]cycloocta[1,2,3-cd]inden-3-one] | > 100 | IC50 [2, 5]: 38.8 nM
10 | Cc1ccc2c(n1)Cc1conc1-c1ncn3c(NCc4c(F)ccc5c4CCO5)ncc-2c13 [E 36, N-((5-fluoro-2,3-dihydrobenzofuran-4-yl)methyl)-8-methyl-6H-4-oxa-2,3,7,12,13a-pentaazabenzo[4,5]cyclopenta[7,8]cycloocta [1,2,3-cd]inden-13-amine] |  | IC50 [1, 6]: 10 to 100 nM; IC50 [2, 7]: 10 to 100 nM
11 | CCc1cnc2n1Cc1cc(C(F)(F)F)ncc1-c1cnc(NCc3c(F)ccc4c3CCO4)n3cnc-2c13 [E 37, 5-ethyl-N-((5-fluoro-2,3-dihydrobenzofuran-4-yl)methyl)-8-(trifluoromethyl)-6H-2,3,5a,9,12,13a-hexaazabenzo[4,5]cyclopenta[7,8]cycloocta[1,2,3-cd]inden-13-amine] |  | IC50 [1, 6]: 10 to 100 nM; IC50 [2, 7]: 10 to 100 nM
12 | O=C1Nc2ccccc2-c2cnc(NCc3c(F)ccc4c3CCO4)n3cnc1c23 [Cpd. No. 3, 11-(((5-fluoro-2,3-dihydrobenzofuran-4-yl)methyl)amino)-2,4,10,11a-tetraazadibenzo[cd,f]azulen-3(4H)-one] |  | IC50 [2, 5]: 84 nM
13 | CC(C)N1Cc2nc(C(F)(F)F)ccc2-c2cnc(NCc3c(F)ccc4c3CCO4)n3cnc(c23)C1=O [compound 59, 12-(((5-fluoro-2,3-dihydrobenzofuran-4-yl)methyl)amino)-4-isopropyl-7-(trifluoromethyl)-4,5-dihydro-3H-2,4,6,11,12a-pentaazabenzo[4,5]cycloocta[1,2,3-cd]inden-3-one] | 39.9 | 
14 | O=C1c2ncn3c(NCc4c(F)ccc5c4CCO5)ncc(c23)-c2ccc(C(F)(F)F)cc2CN1CC(F)F [compound 81, 4-(2,2-difluoroethyl)-12-(((5-fluoro-2,3-dihydrobenzofuran-4-yl)methyl)amino)-7-(trifluoromethyl)-4,5-dihydro-3H-2,4,11,12a-tetraazabenzo[4,5]cycloocta[1,2,3-cd]inden-3-one] | 1.43 | 
15 | CNC(=O)c1ncn2c(NCc3ccccc3OC)ncc(-c3ccccc3)c12 [compound 136, 5-((2-methoxybenzyl)amino)-N-methyl-8-phenylimidazo[1,5-c]pyrimidine-1-carboxamide] | > 100 | 
16 | CC(C)(F)CN1Cc2cc(C(F)(F)F)ccc2-c2cnc(NCc3c(F)ccc4c3CCO4)n3cnc(c23)C1=O [compound 62, 12-(((5-fluoro-2,3-dihydrobenzofuran-4-yl)methyl)amino)-4-(2-fluoro-2-methylpropyl)-7-(trifluoromethyl)-4,5-dihydro-3H-2,4,11,12a-tetraazabenzo[4,5]cycloocta[1,2,3-cd]inden-3-one] | 4.86 | 
17 | COc1cccc(F)c1CNc1ncc2c3c(ncn13)C(=O)N(C1CC1)Cc1nc(C(F)(F)F)ccc1-2 [compound 69, 4-cyclopropyl-12-((2-fluoro-6-methoxybenzyl)amino)-7-(trifluoromethyl)-4,5-dihydro-3H-2,4,6,11,12a-pentaazabenzo[4,5]cycloocta[1,2,3-cd]inden-3-one] | > 100 | 
18 | CNC(=O)c1ncn2c(NCc3c(F)cccc3OC)ncc(-c3ccccc3)c12 [compound 137, 5-((2-fluoro-6-methoxybenzyl)amino)-N-methyl-8-phenylimidazo[1,5-c]pyrimidine-1-carboxamide] | > 100 | 
19 | Cc1nn(C)c2c1-c1cnc(NCc3c(F)ccc4c3CCO4)n3cnc(c13)C(=O)N(C1CC1)C2 [compound 56, 4-cyclopropyl-11-(((5-fluoro-2,3-dihydrobenzofuran-4-yl)methyl)amino)-6,8-dimethyl-5,6-dihydro-2,4,6,7,10,11a-hexaazacyclopenta[4,5]cycloocta[1,2,3-cd]inden-3(4H)-one] | 21 | 
20 | c1ccc(-c2cnc(NCc3ccco3)n3cncc23)cc1 [Cpd. No. 126, N-(furan-2-ylmethyl)-8-phenylimidazo[1,5-c]pyrimidin-5-amine] | > 100 | 
21 | CNC(=O)c1ncn2c(NCc3c(F)ccc4c3CCO4)ncc(-c3ccccc3)c12 [compound 142, 5-(((5-fluoro-2,3-dihydrobenzofuran-4-yl)methyl)amino)-N-methyl-8-phenylimidazo[1,5-c]pyrimidine-1-carboxamide] | > 100 | 
22 | CP(C)(=O)c1ncn2c(NCc3c(F)ccc4c3CCO4)ncc(-c3ccccc3)c12 [Cpd. No. 144, (5-(((5-fluoro-2,3-dihydrobenzofuran-4-yl)methyl)amino)-8-phenylimidazo[1,5-c]pyrimidin-1-yl)dimethylphosphine oxide] | > 10 | 
23 | O=C1c2ncn3c(NCc4c(F)ccc5c4CCO5)ncc(c23)-c2ccc(C(F)(F)F)cc2CN1CCF [compound 61, 12-(((5-fluoro-2,3-dihydrobenzofuran-4-yl)methyl)amino)-4-(2-fluoroethyl)-7-(trifluoromethyl)-4,5-dihydro-3H-2,4,11,12a-tetraazabenzo[4,5]cycloocta[1,2,3-cd]inden-3-one] | 1.63 | 
24 | Cc1ccc(-c2cnc(NCc3c(F)ccc4c3CCO4)n3cnc(S(C)(=O)=O)c23)cn1 [compound 103, N-((5-fluoro-2,3-dihydrobenzofuran-4-yl)methyl)-8-(6-methylpyridin-3-yl)-1-(methylsulfonyl)imidazo[1,5-c]pyrimidin-5-amine] |  | IC50 [1, 3]: 1.88 nM
25 | COc1cccc(F)c1CNc1ncc2c3c(ncn13)C(=O)N(C1CC1)Cc1cc(C(F)(F)F)ncc1-2 [compound 70, 4-cyclopropyl-12-((2-fluoro-6-methoxybenzyl)amino)-7-(trifluoromethyl)-4,5-dihydro-3H-2,4,8,11,12a-pentaazabenzo[4,5]cycloocta[1,2,3-cd]inden-3-one] | > 100 | 
